From patent publication EP0367033A1, “S-Difluoromethylhomocysteines, preparation process, and insecticidal compositions” (SHIONOGI SEIYAKU KABUSHIKI KAISHA, priority 1988, dated 1990) come the findings set out here.

The test system of assay [1] is Myzus persicae (URR-O type), sensitive strains. The assay can be described thus: Foliar spray test on larvae of Myzus persicae, sensitive strain. It counts as in vivo. Particulars: for LC50: read-out: LC₅₀ (ppm) Sensitive Strain. The method, then:
(§1) A solution of the compound is diluted with distilled water containing Tween 20® at a concentration of 100 ppm to prepare a predetermined concentration of the test solution. Malathion emulsion and pirimicarb wettable powder are diluted with distilled water to prepare a predetermined concentration of the test solution, respectively.
(§2) Myzus persicae (URR-O type) distributed from Chiba University, which were reared for succesive generations, were used as a group of sensitive strains. Myzus persicae resistant to malathion and pirimicarb which were collected from Aburahi Laboratory of Shionogi & Co., Ltd. and reared for succesive generations while selecting those resistant to these drugs were used as a group of resistant strains.
(§3) A polyethylene cup (diameter 6 cm, depth 4 cm) was filled with 0.3 % agar gel and a piece of Chinese cabbage leaf (3x3 cm) was placed on the gel. One apterous adult of Myzus persicae was put on the leaf and allowed to keep at 25 °C for 24 hours to make larviposition. After removal of the adult, 2 ml of the test solution was applied to the foliage under a rotary sprayer; and larvae of Myzus persicae was allowed to keep at 25 °C for 48 hours. Then the mortality of the larvae was determined and the value of LC₅₀ was calculated by the method of Billis. [Bliis, Ann. Appl. Biol.,22, 134;307 (1935)].

In assay [2] the test system is Myzus persicae resistant to malathion and pirimicarb. The assay can be described thus: Foliar spray test on larvae of Myzus persicae, strain resistant to malathion and pirimicarb. It counts as in vivo. Particulars: for LC50: read-out: LC₅₀ (ppm) Resistant Strain. The protocol: as §1, §2, §3
Setting [3] is: 7.8 ppm, larvae, 25 °C, 48 hours after spraying.
[4] abbreviates: 15.6 ppm, larvae, 25 °C, 48 hours after spraying.
Setting [5] is: 31.3 ppm, larvae, 25 °C, 48 hours after spraying.
Setting [6] is: 62.5 ppm, larvae, 25 °C, 48 hours after spraying.
[7] abbreviates: 125 ppm, larvae, 25 °C, 48 hours after spraying.
[8] abbreviates: 250 ppm, larvae, 25 °C, 48 hours after spraying.
Setting [9] is: larvae, 48 hours, ( ) means 95 % confidence limit.

One may read the mortality as the percentage killed.

Structures are written as SMILES. ≈ marks a conversion by molar mass, not a printed value. Read-outs that look alike come from different tables or passages of the source.

Regarding `CCOC(=O)CC(SP(=S)(OC)OC)C(=O)OCC` (stereo not drawn) [malathion, reference compound], the LC50 was 136 µg/mL (≈ 412 µM) in assay [1] (48 h) and more than 2000 µg/mL in assay [2] (48 h).

`Cc1nc(N(C)C)nc(OC(=O)N(C)C)c1C` [pirimicarb, reference compound]: the LC50 in assay [1] (48 h) is 8.2 µg/mL (≈ 34.4 µM); in assay [2] (48 h), more than 1920 µg/mL.

As for `N[C@@H](CCSC(F)F)C(=O)O` [Compound I ^a, L-difluoromethylhomocysteine], the mortality at 7.8 ppm in assay [1] (setting [3]) was determined as 0%; in assay [2] (setting [3]), 5%. Further, the mortality at 15.6 ppm in assay [1] (setting [4]) was determined as 8.7%; in assay [2] (setting [4]) it was 0%. For the same compound, the figures for the mortality at 31.3 ppm in assay [1] (setting [5]) and in assay [2] (setting [5]) were 4.8% and 54.2%, respectively. Moreover, the mortality at 62.5 ppm was determined as 57.1% in assay [1] (setting [6]) and 100% in assay [2] (setting [6]). Besides, the mortality at 125 ppm in assay [1] (setting [7]) and in assay [2] (setting [7]) was 100% each time. For the same compound, the mortality at 250 ppm in assay [1] (setting [8]) and in assay [2] (setting [8]) was 100% in each case. Further, the figures for the LC50 in assay [1] (setting [9]) and in assay [2] (setting [9]) were 52.9 µg/mL (≈ 286 µM) and 27.1 µg/mL (≈ 146 µM), respectively.
